From PubChem BioAssay AID2060599 (Molecular Pharmacology Branch, DTP, NCI, 2025)

System: 817829-284-R-J1-PDC complex spheroids, viability
Assay: Anticancer human tumor 817829-284-R-J1-PDC patient-derived colon adenocarcinoma cell line growth inhibition [CLK]
Details: for IC50: curve of first compound; for viability, T/C: stronger effect = lower value
Procedure, shortened: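 Multi-cell-type spheroids combined patient-derived tumor cells with HUVEC endothelial cells and human mesenchymal stem cells. Paired agents were dosed in half-log steps down from about clinical Cmax, or from 10 microM where Cmax was unknown.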

[1] = second compound 0.0316 µM, first compound 0.0316 µM
[2] = second compound 0.0316 µM, first compound 0.1 µM
[3] = second compound 0.0316 µM, first compound 0.316 µM
[4] = second compound 0.0316 µM, first compound 1 µM
[5] = second compound 0.0316 µM, first compound 3.16 µM
[6] = second compound 0.0316 µM, first compound 10 µM
[7] = second compound 0.1 µM, first compound 0.0316 µM
[8] = second compound 0.1 µM, first compound 0.1 µM
[9] = second compound 0.1 µM, first compound 0.316 µM
[10] = second compound 0.1 µM, first compound 1 µM
[11] = second compound 0.1 µM, first compound 3.16 µM
[12] = second compound 0.1 µM, first compound 10 µM
[13] = second compound 0.316 µM, first compound 0.0316 µM
[14] = second compound 0.316 µM, first compound 0.1 µM
[15] = second compound 0.316 µM, first compound 0.316 µM
[16] = second compound 0.316 µM, first compound 1 µM
[17] = second compound 0.316 µM, first compound 3.16 µM
[18] = second compound 0.316 µM, first compound 10 µM
[19] = second compound 1 µM, first compound 0.0316 µM
[20] = second compound 1 µM, first compound 0.1 µM
[21] = second compound 1 µM, first compound 0.316 µM
[22] = second compound 1 µM, first compound 1 µM
[23] = second compound 1 µM, first compound 3.16 µM
[24] = second compound 1 µM, first compound 10 µM
[25] = second compound 3.16 µM, first compound 0.0316 µM
[26] = second compound 3.16 µM, first compound 0.1 µM
[27] = second compound 3.16 µM, first compound 0.316 µM
[28] = second compound 3.16 µM, first compound 1 µM
[29] = second compound 3.16 µM, first compound 3.16 µM
[30] = second compound 3.16 µM, first compound 10 µM
[31] = second compound 10 µM, first compound 0.0316 µM
[32] = second compound 10 µM, first compound 0.1 µM
[33] = second compound 10 µM, first compound 0.316 µM
[34] = second compound 10 µM, first compound 1 µM
[35] = second compound 10 µM, first compound 3.16 µM
[36] = second compound 10 µM, first compound 10 µM
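Note: spheroids exposed to the agents for seven days before readout.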

## CC(Nc1ccc2c(c1)OCCn1cc(N3C(=O)OCC3C(F)F)nc1-2)C(N)=O (stereo unspecified) + CNC(=O)c1ccc(Nc2nc(OC3CCCC3)c3c(-c4ccc5nc(C)oc5c4)c[nH]c3n2)c(OC)c1
Second compound 0.0316 µM
  IC50: < 31.6 nM
Second compound 0.1 µM
  IC50: < 31.6 nM
Second compound 0.316 µM
  IC50: < 31.6 nM
Second compound 1 µM
  IC50: < 31.6 nM
Second compound 3.16 µM
  IC50: < 31.6 nM
Second compound 10 µM
  IC50: < 31.6 nM
[1]
  viability, T/C: 40%
[2]
  viability, T/C: 32.3%
[3]
  viability, T/C: 42.4%
[4]
  viability, T/C: 48.6%
[5]
  viability, T/C: 29.8%
[6]
  viability, T/C: 20.4%
[7]
  viability, T/C: 20.4%
[8]
  viability, T/C: 26.4%
[9]
  viability, T/C: 20.2%
[10]
  viability, T/C: 20%
[11]
  viability, T/C: 33.4%
[12]
  viability, T/C: 15.1%
[13]
  viability, T/C: 37.9%
[14]
  viability, T/C: 19.6%
[15]
  viability, T/C: 19.9%
[16]
  viability, T/C: 21.6%
[17]
  viability, T/C: 18.5%
[18]
  viability, T/C: 15.5%
[19]
  viability, T/C: 23.4%
[20]
  viability, T/C: 20.8%
[21]
  viability, T/C: 16.7%
[22]
  viability, T/C: 17.6%
[23]
  viability, T/C: 16.1%
[24]
  viability, T/C: 15.3%
[25]
  viability, T/C: 22.2%
[26]
  viability, T/C: 18.8%
[27]
  viability, T/C: 16.5%
[28]
  viability, T/C: 18.6%
[29]
  viability, T/C: 13.1%
[30]
  viability, T/C: 13.6%
[31]
  viability, T/C: 15.1%
[32]
  viability, T/C: 16.6%
[33]
  viability, T/C: 14%
[34]
  viability, T/C: 18.2%
[35]
  viability, T/C: 16.8%
[36]
  viability, T/C: 9.33%

## Nc1ccn(C2OC(CO)C(O)C2(F)F)c(=O)n1 (stereo unspecified) + CNC(=O)c1ccc(Nc2nc(OC3CCCC3)c3c(-c4ccc5nc(C)oc5c4)c[nH]c3n2)c(OC)c1
Second compound 0.0316 µM
  IC50: < 31.6 nM
Second compound 0.1 µM
  IC50: < 31.6 nM
Second compound 0.316 µM
  IC50: < 31.6 nM
Second compound 1 µM
  IC50: < 31.6 nM
Second compound 3.16 µM
  IC50: < 31.6 nM
Second compound 10 µM
  IC50: < 31.6 nM
[1]
  viability, T/C: 7.4%
[2]
  viability, T/C: 6.76%
[3]
  viability, T/C: 7.11%
[4]
  viability, T/C: 7.29%
[5]
  viability, T/C: 5.09%
[6]
  viability, T/C: 3.92%
[7]
  viability, T/C: 8.05%
[8]
  viability, T/C: 6.31%
[9]
  viability, T/C: 5.97%
[10]
  viability, T/C: 5.9%
[11]
  viability, T/C: 5.26%
[12]
  viability, T/C: 3.21%
[13]
  viability, T/C: 8.92%
[14]
  viability, T/C: 6.1%
[15]
  viability, T/C: 7.05%
[16]
  viability, T/C: 4.87%
[17]
  viability, T/C: 4.82%
[18]
  viability, T/C: 2.7%
[19]
  viability, T/C: 6.66%
[20]
  viability, T/C: 4.92%
[21]
  viability, T/C: 5.51%
[22]
  viability, T/C: 5.11%
[23]
  viability, T/C: 3.64%
[24]
  viability, T/C: 2.55%
[25]
  viability, T/C: 6.07%
[26]
  viability, T/C: 5.26%
[27]
  viability, T/C: 4.97%
[28]
  viability, T/C: 4.56%
[29]
  viability, T/C: 3.52%
[30]
  viability, T/C: 3.21%
[31]
  viability, T/C: 7.94%
[32]
  viability, T/C: 5.03%
[33]
  viability, T/C: 4.94%
[34]
  viability, T/C: 4.81%
[35]
  viability, T/C: 4.26%
[36]
  viability, T/C: 2.75%

## C=C(F)C(=O)N1CCN(c2nc(OCC3CCCN3C)nc3c2CCN(c2cccc4cccc(Cl)c24)C3)CC1CC#N (stereo unspecified) + CN1CCN(c2cc(C(=O)Nc3cc4cc(-c5cnn(C)c5)ccc4cn3)ccn2)CC1
Second compound 0.0316 µM
  IC50: 1600 nM
Second compound 0.1 µM
  IC50: < 31.6 nM
Second compound 0.316 µM
  IC50: < 31.6 nM
Second compound 1 µM
  IC50: < 31.6 nM
Second compound 3.16 µM
  IC50: < 31.6 nM
Second compound 10 µM
  IC50: < 31.6 nM
[1]
  viability, T/C: 79.5%
[2]
  viability, T/C: 71.8%
[3]
  viability, T/C: 63.4%
[4]
  viability, T/C: 79.5%
[5]
  viability, T/C: 16.2%
[6]
  viability, T/C: 0.06%
[7]
  viability, T/C: 24.5%
[8]
  viability, T/C: 29.8%
[9]
  viability, T/C: 16.7%
[10]
  viability, T/C: 22.5%
[11]
  viability, T/C: 9.48%
[12]
  viability, T/C: 0.04%
[13]
  viability, T/C: 2.04%
[14]
  viability, T/C: 2.26%
[15]
  viability, T/C: 2.74%
[16]
  viability, T/C: 2.59%
[17]
  viability, T/C: 0.76%
[18]
  viability, T/C: 0.04%
[19]
  viability, T/C: 0.15%
[20]
  viability, T/C: 0.11%
[21]
  viability, T/C: 0.11%
[22]
  viability, T/C: 0.11%
[23]
  viability, T/C: 0.84%
[24]
  viability, T/C: 0.05%
[25]
  viability, T/C: 0.2%
[26]
  viability, T/C: 0.19%
[27]
  viability, T/C: 0.2%
[28]
  viability, T/C: 0.15%
[29]
  viability, T/C: 0.11%
[30]
  viability, T/C: 0.08%
[31]
  viability, T/C: 0.1%
[32]
  viability, T/C: 0.11%
[33]
  viability, T/C: 0.19%
[34]
  viability, T/C: 0.21%
[35]
  viability, T/C: 0.2%
[36]
  viability, T/C: 0.16%
